Columns and labels:
[1] = test system: CD4+ T lymphocytes from Class II H-2 invalidated HLA-DR1 transgenic mice; assay: Proliferation test ([3H]-thymidine) of T cells from p24-immunized HLA-DR1 transgenic mice re-stimulated in vitro with peptide-loaded LPS blasts; type: cell-based, mouse
From the text: FIG. 1: The stimulation index of CD4+ T lymphocytes stemming from Class II H-2, invalidating HLA-DR1 transgenic mice (IAβ^bo) and immunized by means of the p24 protein of the HIV, is illustrated in this figure. The CD4+ T cells were re-stimulated in vitro by blasts activated by LPS and loaded with peptide Gag291-310, Gag301-320, Gag321-340, Gag331-350, and RT171-190 as control peptide. The stimulation index represents the ratio of the radioactivity measured after incorporation of [^3H]-thymidine by the T lymphocytes in the presence of specific peptides over the radioactivity measured by incorporation of [^3H]-thymidine by the T lymphocytes in the presence of the control peptide.
HLA-DR1 transgenic and Class II (IAβ^bo) H-2 invalidated mice, the line of which was established beforehand by Pajot et al., (Int. Immunol., 2004, 16:1275-1282) were used during the various experiments.
The mice, anesthetized with 75 mg/kg of pentobarbital (Ceva, Santé Animale, Libourne, France) received 4 μg of recombinant proteins associated with an alum adjuvant.
Twelve days after the last immunization, splenocytes separated from red corpuscles by purification on Ficoll (5·10^6 cells/25 cm^2 of culture flask (TECHNO PLASTIC PRODUCT, TPP, Trasadingen, Switzerland)) were co-cultivated in the presence of blast cells activated with LPS (5·10^6 cells/culture flask), loaded with peptides (20 μg/ml) and irradiated by γ rays (180 Gy), in an RPMI medium complemented with 10% FCS (Fetal Calf Serum), 10 mM HEPES, 1 mM sodium pyruvate, […] mercapto-2-ethanol, 100 IU/ml of penicillin and 100 μg of streptomycin, as described by Loirat at al., (Journal of Immunology, 2000, 165:4748-4755).
The blast cells were loaded with one of the test peptides Gag301-320, Gag321-340, or Gag331-350, or with a negative control peptide derived from an antigen of the HIV, the RT171-190 peptide, or with a positive control peptide derived from the p24 antigen of the HIV, the peptide Gag291-310, respectively.
After seven days of culture, proliferation tests were carried out after distributing 5·10^5 cells/wells, in 96-well plates with flat bottoms, from cells (obtained from TTP), in the presence of blast cells stimulated by LPS, irradiated and loaded with peptide (in an amount of 2·10^5 cells/well). The proliferation tests were conducted over a period of 72 hours, in a full RPMI medium complemented with 3% SVF.
The cells were incubated for the last 16 hours, with 1 μCi of [^3H]-thymidine per well before being recovered on filters with a TOMTEC collector (Perkin Elmer Applied Biosystem). The incorporated radioactivity was measured with a micro-β counter (Perkin Elmer Applied Biosystem)
The results are expressed as a stimulation index (IS) equal to the ratio of the cpm measured after incubation with the tested peptides over the cpm measured after incubation with the control peptide.
In order to evaluate the immunogenicity of HLA-DR1 restrictive epitopes, Gag301-320, Gag321-340, and Gag331-350, the Class II H-2 invalidated and HLA-DR1 transgenic mice were immunized with the p24 protein of the HIV. Subsequently, the T cells from the spleen were re-stimulated in vitro with the peptides to be tested and a positive control peptide Gag291-310, or a negative control peptide RT171-190.

[2] = test system: CD4+ T cells isolated from HLA-DR1 patients infected by HIV-1; assay: IFN-γ ELISPOT test on PBMCs of HLA-DR1 patients infected by HIV-1; type: cell-based, human; conditions: patient 5.002/1
Description: FIG. 4: Table 3: Responses with secretion of IFN-γγ by CD4+ T cells isolated from HLA-DR1 patients infected by HIV-1 are illustrated in this Table. The responses of specific human CD4+ T cells of HIV-1 were evaluated by an ELISPOT test as described in the section “Materials and Methods”. The responses were evaluated with or without eliminating CD8+ T cells. The peptides used for stimulating PBMCs were either a set of peptides overlapping in length by 15 amino acids (set of 11 consecutive peptides), or a peptide of 20 amino acids in length.
The individuals infected by HIV-1 were selected from the French cohort ALT and selected with regard to their HLA-DR1 profile. The long term non-progressor condition of the patients was defined as being an asymptomatic HIV infection for at least 8 years, with a stable CD4+ T cell count at a level larger than or equal to 600 cells/mm^3, and without any anti-retrovirus therapy (Candotti at al., J. Med. Virol. 1999, 58:256-63).
HIV-1-specific human CD4+ T cell response towards various peptides was quantitated by the ELISPOT test on frozen mononuclear cells of peripheral blood (PBMC: peripheral blood mononuclear cells), as described earlier (Forsthubert et al., Science, 1996, 271:1728-30).
ELISPOT 96-well plates (Millipore, Molsheim, France) were covered with an antibody directed against human IFN-γγ (IgG1/B-B1, Diaclone, Strasburg, France).
After a blocking step in the presence of a medium containing 10% SVF, 1·10^5 PBMCs were distributed into the wells. The experiment was conducted in triplicate. The cells were grown during the night following their thawing. Next, the plates were incubated at 35° C. for 18 hours in the presence of 2 μg/ml of peptides derived from the Gag protein of HIV-1 (a 15-mer or 20-mer overlapping peptide; cf. Table 3).
Phytohemagglutinin (Murex, Paris, France, […]) and the medium alone were used as a positive and a negative control, respectively.
The wells were then subsequently washed and spots were detected by adding the detection antibody directly against human IFN-γγ and marked with biotin (B-G1-Diaclone) (4 hours, 37° C.), followed by adding the alkaline phosphatase on the streptavidin (1 hour, 37° C.) and the substrate (5-bromo-4-3-indolyl-phosphate/4-nitro-blue-tetrazolium; Sigma, Saint-Quentin Falavier, France). Incubation was maintained at room temperature, until blue dots appeared. The frequency of spot forming cells (SFCs) specific to the antigens was measured by means of an automated microscopy system (ZEISS, Munich, Germany) and counted as positive if a minimum of 50 SFCs/1·10^6 of PBMCs were detected above the background noise. […]
Recognition of the epitopes identified by CD4+ cells isolated from HLA-DR1+ patients infected by HIV-1 was evaluated by using the ELISPOT test. […]

Gag331-350: novel 20 amino acid HLA-DR1 restricted epitope peptide of the HIV-1 Gag p24 protein (KTILKALGPAATLEEMMTAC; Gag polyprotein; UniProt P04591 331-350, looked up, fragment)
number of mice responding to the peptide ([1]; Class II H-2 invalidated HLA-DR1 transgenic mice immunized with p24 (Table 2)): 3 mice out of 11 | proliferative cell response (FIG. 1) ([1]; mice immunized with p24 protein of HIV, T cells from spleen re-stimulated in vitro with peptide): capable of developing a proliferative cell response | IFN-γ ELISPOT recognition by CD4+ T cells [2]: recognized
